Experimental data: paper PMC12030706, “Novel ^177Lu-Labeled [Thz^14]Bombesin(6–14) Derivatives with Low Pancreas Accumulation for Targeting Gastrin-Releasing Peptide Receptor-Expressing Cancer” (Pharmaceuticals, 2025)

Legend:
GRPR (PC-3 cells) = biological target: T1, GRPR (PC-3 cells) (Homo sapiens, UniProt P30550); assay: Fluorometric intracellular calcium release assay; format: cell-based; details: 50 nM, n = 3
T1 construct: GRPR-expressing prostate cancer PC-3 cells; host or cells: PC-3 prostate adenocarcinoma cells
Method: The antagonist/agonist characteristics of Lu-TacsBOMB5, Lu-LW01110, and Lu-LW01142 were determined following previously published procedure. A 96-well clear bottom black plate was seeded with 5 × 10^4 PC-3 prostate cancer cells/100 μL/well 24 h prior to the assay. The calcium-sensitive dye (FLIPR Calcium 6 assay kit from Molecular Devices, San Jose, CA, USA) in loading buffer (100 μL/well) was added into the 96-well plate, followed by 1 h incubation at 37 °C. After that, the plate was transferred into a FlexStation 3 microplate reader (Molecular Devices, San Jose, CA, USA). Lu-complexed nonradioactive standard (50 nM), [D-Phe^6,Leu-NHEt^13,des-Met^14]Bombesin(6–14) (50 nM, antagonist control), bombesin (50 nM, agonist control), adenosine triphosphate (ATP, 50 nM, positive control), or DPBS (blank control) was added, and the fluorescent signals were acquired for 2 min (λEx = 485 nm; λEm = 525 nm; n = 3). The relative fluorescent unit (RFU = max − min) was calculated to determine the agonistic/antagonistic characteristics for the tested ligands.

PC-3 tumor xenografts = details: in vivo, 1 h; cited from earlier work

T1 sequence (P30550 whole entry): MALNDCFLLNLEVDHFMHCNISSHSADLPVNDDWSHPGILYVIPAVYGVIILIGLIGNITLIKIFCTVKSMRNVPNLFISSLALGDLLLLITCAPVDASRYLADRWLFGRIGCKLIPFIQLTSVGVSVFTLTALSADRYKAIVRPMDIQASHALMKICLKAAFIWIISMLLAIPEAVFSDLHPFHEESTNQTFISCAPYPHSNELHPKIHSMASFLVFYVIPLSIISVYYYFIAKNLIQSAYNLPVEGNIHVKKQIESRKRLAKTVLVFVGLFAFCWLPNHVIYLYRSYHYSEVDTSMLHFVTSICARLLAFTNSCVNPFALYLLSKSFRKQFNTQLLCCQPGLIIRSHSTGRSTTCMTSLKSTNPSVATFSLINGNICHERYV

Compound	Ca2+ efflux (RFU = max − min) (GRPR (PC-3 cells)) [RFUs]	uptake in PC-3 tumor xenografts (PC-3 tumor xenografts) [%ID/g]
Nc1ncnc2c1ncn2[C@@H]1O[C@H](COP(=O)(O)OP(=O)(O)OP(=O)(O)O)[C@@H](O)[C@H]1O [ATP, adenosine triphosphate]	150 ± 40.7	–
[D-Phe^6,Leu-NHEt^13,des-Met^14]Bombesin(6–14)	29.7 ± 2.73	–
^68Ga-DOTA-Pip-[D-Phe^6,NMe-Gly^11,Leu^13ψThz^14]Bombesin(6–14) [[^68Ga]Ga-TacsBOMB5]	–	15.7 ± 2.17
^68Ga-DOTA-Pip-[D-Phe^6,Tle^10,NMe-His^12,Thz^14]Bombesin(6–14) [[^68Ga]Ga-LW01110]	–	16.6 ± 1.60
bombesin	235 ± 15.2	–
